# Data taken from patent publication US11572590B2, “Methods for evaluating tumor cell spheroids using 3D microfluidic cell culture device” (Dana-Farber Cancer Institute, Inc., priority 2017, dated 2023).
# Where two headings read alike, the source gives them in different places.
# Legend:
# Assay in all cases: SelectScreen Kinase Profiling, single point inhibition and IC50 for off-target kinases
# Format in all cases: biochemical
# off-target kinases [1] = target: off-target kinases (Homo sapiens, UniProt Q9NQU5); conditions: PAK6, ZLYTE, ATP Km app
# Sequence of off-target kinases (Homo sapiens, UniProt Q9NQU5) (Q9NQU5 whole entry): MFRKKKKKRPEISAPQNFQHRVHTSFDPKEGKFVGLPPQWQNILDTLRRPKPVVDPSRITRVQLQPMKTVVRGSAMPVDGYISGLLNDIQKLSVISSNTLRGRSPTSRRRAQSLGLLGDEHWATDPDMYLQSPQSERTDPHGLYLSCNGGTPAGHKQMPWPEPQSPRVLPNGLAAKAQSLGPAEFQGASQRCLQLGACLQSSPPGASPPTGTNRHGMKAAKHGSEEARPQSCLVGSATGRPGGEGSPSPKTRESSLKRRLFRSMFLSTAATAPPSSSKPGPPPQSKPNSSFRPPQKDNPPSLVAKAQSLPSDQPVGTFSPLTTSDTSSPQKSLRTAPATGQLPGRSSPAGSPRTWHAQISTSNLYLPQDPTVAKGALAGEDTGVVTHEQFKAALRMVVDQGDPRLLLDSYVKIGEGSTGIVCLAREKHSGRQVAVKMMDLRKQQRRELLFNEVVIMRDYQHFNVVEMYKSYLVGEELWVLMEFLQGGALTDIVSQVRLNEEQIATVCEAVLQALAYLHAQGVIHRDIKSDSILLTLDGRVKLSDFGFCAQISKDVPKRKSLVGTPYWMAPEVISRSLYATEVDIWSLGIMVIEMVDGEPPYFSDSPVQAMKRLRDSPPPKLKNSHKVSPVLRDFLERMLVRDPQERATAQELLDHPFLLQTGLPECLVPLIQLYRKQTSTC
# off-target kinases [2] = target: off-target kinases (Homo sapiens, UniProt P00519, T315I); conditions: ABL1 T315I, mutant y, ZLYTE, ATP Km app
# off-target kinases [3] = target: off-target kinases (Homo sapiens, UniProt P42336); conditions: PIK3CA/PIK3R1 (p110 alpha/p85 alpha); Cmpd1 1000 μM; ATP Km app; Adapta
# Sequence of off-target kinases (Homo sapiens, UniProt P42336) (P42336 whole entry): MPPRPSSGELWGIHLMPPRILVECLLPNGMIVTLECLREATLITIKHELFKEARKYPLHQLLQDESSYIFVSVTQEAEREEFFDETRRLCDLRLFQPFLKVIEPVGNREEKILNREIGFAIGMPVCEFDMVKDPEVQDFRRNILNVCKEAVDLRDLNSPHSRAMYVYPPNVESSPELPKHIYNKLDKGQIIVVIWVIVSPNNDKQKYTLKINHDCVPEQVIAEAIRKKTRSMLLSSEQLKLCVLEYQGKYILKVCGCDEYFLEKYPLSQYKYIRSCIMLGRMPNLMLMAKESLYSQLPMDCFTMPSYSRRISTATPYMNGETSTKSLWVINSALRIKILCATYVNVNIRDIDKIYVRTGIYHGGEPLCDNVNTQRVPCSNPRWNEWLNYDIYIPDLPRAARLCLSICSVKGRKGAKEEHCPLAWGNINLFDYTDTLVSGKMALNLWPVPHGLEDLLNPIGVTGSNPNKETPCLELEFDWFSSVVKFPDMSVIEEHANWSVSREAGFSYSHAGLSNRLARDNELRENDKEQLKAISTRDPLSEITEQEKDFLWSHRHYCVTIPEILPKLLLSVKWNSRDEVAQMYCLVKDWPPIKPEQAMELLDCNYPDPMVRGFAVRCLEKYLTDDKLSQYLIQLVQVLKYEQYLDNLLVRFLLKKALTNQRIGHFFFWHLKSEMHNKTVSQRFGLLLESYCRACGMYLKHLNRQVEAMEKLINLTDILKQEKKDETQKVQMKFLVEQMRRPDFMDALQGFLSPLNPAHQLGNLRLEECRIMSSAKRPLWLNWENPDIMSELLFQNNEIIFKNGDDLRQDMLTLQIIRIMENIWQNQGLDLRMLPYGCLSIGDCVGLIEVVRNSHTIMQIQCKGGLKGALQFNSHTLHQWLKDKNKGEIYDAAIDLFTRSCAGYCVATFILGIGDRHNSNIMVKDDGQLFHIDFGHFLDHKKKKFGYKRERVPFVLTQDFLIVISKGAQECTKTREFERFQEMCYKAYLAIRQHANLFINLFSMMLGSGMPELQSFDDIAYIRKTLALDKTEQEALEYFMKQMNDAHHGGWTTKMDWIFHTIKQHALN
# off-target kinases [4] = target: off-target kinases (Homo sapiens, UniProt P17612); conditions: PRKACA (PKA), ZLYTE, ATP Km app
# off-target kinases [5] = target: T1, off-target kinases (Homo sapiens, UniProt Q9H2K8); conditions: TAOK3 (JIK), LanthaScreen Binding
# T1 sequence (Q9H2K8 1-898): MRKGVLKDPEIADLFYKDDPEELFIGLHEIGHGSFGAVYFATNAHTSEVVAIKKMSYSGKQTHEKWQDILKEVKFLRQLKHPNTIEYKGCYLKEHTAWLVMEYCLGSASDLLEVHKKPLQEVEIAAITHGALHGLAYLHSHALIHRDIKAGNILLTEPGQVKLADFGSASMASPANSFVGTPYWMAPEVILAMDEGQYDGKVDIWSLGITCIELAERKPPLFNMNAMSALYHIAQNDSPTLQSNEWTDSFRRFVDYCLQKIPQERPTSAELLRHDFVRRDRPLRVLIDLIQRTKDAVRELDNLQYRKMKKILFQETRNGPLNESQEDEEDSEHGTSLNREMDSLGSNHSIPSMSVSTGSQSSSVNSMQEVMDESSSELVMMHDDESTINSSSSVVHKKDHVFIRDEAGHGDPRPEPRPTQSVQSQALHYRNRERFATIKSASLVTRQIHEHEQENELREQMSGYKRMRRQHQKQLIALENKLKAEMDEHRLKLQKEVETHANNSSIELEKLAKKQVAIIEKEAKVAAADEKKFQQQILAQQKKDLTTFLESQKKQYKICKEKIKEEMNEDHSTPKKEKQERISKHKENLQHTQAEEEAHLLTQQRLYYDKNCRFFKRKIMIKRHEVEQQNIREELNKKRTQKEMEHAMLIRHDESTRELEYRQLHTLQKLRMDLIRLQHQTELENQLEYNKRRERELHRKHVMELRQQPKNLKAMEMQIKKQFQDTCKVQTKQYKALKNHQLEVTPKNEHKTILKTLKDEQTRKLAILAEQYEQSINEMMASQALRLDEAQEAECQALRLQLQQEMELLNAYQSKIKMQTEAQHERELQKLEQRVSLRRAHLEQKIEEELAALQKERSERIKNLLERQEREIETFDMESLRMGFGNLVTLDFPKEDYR
# off-target kinases [6] = target: off-target kinases (Homo sapiens, UniProt P22607); conditions: FGFR3, ZLYTE, ATP Km app
# Sequence of off-target kinases (Homo sapiens, UniProt P22607) (P22607 23-806): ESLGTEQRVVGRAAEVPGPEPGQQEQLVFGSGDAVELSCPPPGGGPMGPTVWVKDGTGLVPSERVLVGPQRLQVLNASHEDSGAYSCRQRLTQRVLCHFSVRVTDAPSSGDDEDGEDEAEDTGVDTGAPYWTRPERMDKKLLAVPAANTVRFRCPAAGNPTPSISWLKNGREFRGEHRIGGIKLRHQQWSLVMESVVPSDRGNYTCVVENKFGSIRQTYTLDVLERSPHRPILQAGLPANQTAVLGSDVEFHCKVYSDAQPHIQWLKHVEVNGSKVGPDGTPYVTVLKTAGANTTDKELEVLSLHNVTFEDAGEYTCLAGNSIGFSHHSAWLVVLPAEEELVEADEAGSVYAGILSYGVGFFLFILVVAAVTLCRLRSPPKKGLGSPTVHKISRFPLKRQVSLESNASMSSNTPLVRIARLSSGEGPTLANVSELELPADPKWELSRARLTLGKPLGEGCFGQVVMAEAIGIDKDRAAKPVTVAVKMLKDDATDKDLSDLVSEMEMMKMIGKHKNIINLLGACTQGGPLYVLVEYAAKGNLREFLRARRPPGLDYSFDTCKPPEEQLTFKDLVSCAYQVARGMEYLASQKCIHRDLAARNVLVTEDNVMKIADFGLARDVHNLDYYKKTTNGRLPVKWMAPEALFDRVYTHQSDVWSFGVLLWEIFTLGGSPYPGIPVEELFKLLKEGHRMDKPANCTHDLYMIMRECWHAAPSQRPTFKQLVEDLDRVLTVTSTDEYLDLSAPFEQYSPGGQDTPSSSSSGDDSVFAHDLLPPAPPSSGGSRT
smiles,measurement,setting,value
"N#Cc1cc(-c2ncnc(Nc3ccc(N4CCN(C5COC5)CC4)cc3)n2)ccc1OC1CCOCC1 [Compound 1, 5-(4-((4-(4-(oxetan-3-yl)piperazin-1-yl)phenyl)amino)-1,3,5-triazin-2-yl)-2-((tetrahydro-2H-pyran-4-yl)oxy)benzonitrile]",inhibition,off-target kinases [1]; read-out: % Inhibition 1,9%
same,inhibition,off-target kinases [1]; read-out: % Inhibition 2,4%
same,inhibition,off-target kinases [1]; read-out: % Inhibition Avg,6%
same,inhibition,off-target kinases [2]; read-out: % Inhibition 1,30%
same,inhibition,off-target kinases [2]; read-out: % Inhibition 2,29%
same,inhibition,off-target kinases [2]; read-out: % Inhibition Avg,29%
same,% Inhibition 1,off-target kinases [3],−5%
same,% Inhibition 2,off-target kinases [3],−4%
same,% Inhibition Avg,off-target kinases [3],−5%
same,inhibition,off-target kinases [4]; read-out: % Inhibition 1,4%
same,inhibition,off-target kinases [4]; read-out: % Inhibition 2,1%
same,inhibition,off-target kinases [4]; read-out: % Inhibition Avg,3%
same,inhibition,off-target kinases [5]; read-out: % Inhibition 1,3%
same,inhibition,off-target kinases [5]; read-out: % Inhibition 2,1%
same,inhibition,off-target kinases [5]; read-out: % Inhibition Avg,2%
same,inhibition,off-target kinases [6]; read-out: % Inhibition 1,6%
same,inhibition,off-target kinases [6]; read-out: % Inhibition 2,4%
same,inhibition,off-target kinases [6]; read-out: % Inhibition Avg,5%
